Reference: PubChem BioAssay AID1963826 (Molecular Pharmacology Branch, DTP, NCI, 2024)

Test system: 926638-142-R-J1-PDC complex spheroid viability
Experiment: Anticancer human tumor 926638-142-R-J1-PDC patient-derived endometrial carcinoma cell line growth inhibition [POLQ]
Details: for IC50: curve of first compound; for viability, T/C: stronger effect = lower value; active = viability on the fitted dose curve at most 10% of control; inactive = the rest
Summary of the method: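 Complex spheroid viability model combining PDC tumour cells with endothelial (HUVEC) and MSC stromal cells. Novobiocin, ART-558 or RP6685 were tested singly and in combination with standard and investigational anticancer drugs. Each was titrated in half-log steps from near clinical Cmax, or from 10 microM where Cmax was unknown.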

[1] = second compound 0.0316 µM, first compound 0.0316 µM
[2] = second compound 0.0316 µM, first compound 0.1 µM
[3] = second compound 0.0316 µM, first compound 0.316 µM
[4] = second compound 0.0316 µM, first compound 1 µM
[5] = second compound 0.1 µM, first compound 0.0316 µM
[6] = second compound 0.1 µM, first compound 0.1 µM
[7] = second compound 0.1 µM, first compound 0.316 µM
[8] = second compound 0.1 µM, first compound 1 µM
[9] = second compound 0.316 µM, first compound 0.0316 µM
[10] = second compound 0.316 µM, first compound 0.1 µM
[11] = second compound 0.316 µM, first compound 0.316 µM
[12] = second compound 0.316 µM, first compound 1 µM
[13] = second compound 1 µM, first compound 0.0316 µM
[14] = second compound 1 µM, first compound 0.1 µM
[15] = second compound 1 µM, first compound 0.316 µM
[16] = second compound 1 µM, first compound 1 µM
[17] = second compound 3.16 µM, first compound 0.0316 µM
[18] = second compound 3.16 µM, first compound 0.1 µM
[19] = second compound 3.16 µM, first compound 0.316 µM
[20] = second compound 3.16 µM, first compound 1 µM
[21] = second compound 10 µM, first compound 0.0316 µM
[22] = second compound 10 µM, first compound 0.1 µM
[23] = second compound 10 µM, first compound 0.316 µM
[24] = second compound 10 µM, first compound 1 µM
[25] = second compound 0.0316 µM, first compound 3.16 µM
[26] = second compound 0.0316 µM, first compound 10 µM
[27] = second compound 0.1 µM, first compound 3.16 µM
[28] = second compound 0.1 µM, first compound 10 µM
[29] = second compound 0.316 µM, first compound 3.16 µM
[30] = second compound 0.316 µM, first compound 10 µM
[31] = second compound 1 µM, first compound 3.16 µM
[32] = second compound 1 µM, first compound 10 µM
[33] = second compound 3.16 µM, first compound 3.16 µM
[34] = second compound 3.16 µM, first compound 10 µM
[35] = second compound 10 µM, first compound 3.16 µM
[36] = second compound 10 µM, first compound 10 µM
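Also: spheroids exposed to drugs for one week before readout.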
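For viability, T/C in this document: percent viability relative to DMSO vehicle control wells set as 100%.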

C=CCn1c(=O)c2cnc(Nc3ccc(N4CCN(C)CC4)cc3)nc2n1-c1cccc(C(C)(C)O)n1 + Cc1cccc(N(C)C(=O)C2C(O)CCN2c2nc(C)cc(C(F)(F)F)c2C#N)c1
627 nM: IC50 (second compound 1 µM)
714 nM: IC50 (second compound 0.1 µM)
276 nM: IC50 (second compound 10 µM)
390 nM: IC50 (second compound 0.0316 µM)
inactive: viability, T/C (second compound 0.0316 µM, first compound 0.00316 µM) 92% | viability, T/C (second compound 0.0316 µM, first compound 0.01 µM) 80.1% | viability, T/C [1] 90% | viability, T/C [2] 64.9% | viability, T/C [3] 55.6% | viability, T/C [4] 34% | viability, T/C (second compound 0.1 µM, first compound 0.00316 µM) 106% | viability, T/C (second compound 0.1 µM, first compound 0.01 µM) 98.3% | viability, T/C [5] 88.7% | viability, T/C [6] 77.2% | viability, T/C [7] 57.8% | viability, T/C [8] 46.6% | viability, T/C (second compound 0.316 µM, first compound 0.00316 µM) 102% | viability, T/C (second compound 0.316 µM, first compound 0.01 µM) 94.4% | viability, T/C [9] 71.6% | viability, T/C [10] 61.2% | viability, T/C [11] 54.7% | viability, T/C [12] 37% | viability, T/C (second compound 1 µM, first compound 0.00316 µM) 109% | viability, T/C (second compound 1 µM, first compound 0.01 µM) 91.5% | viability, T/C [13] 76.1% | viability, T/C [14] 81.1% | viability, T/C [15] 60.8% | viability, T/C [16] 40.8% | viability, T/C (second compound 3.16 µM, first compound 0.00316 µM) 87.7% | viability, T/C (second compound 3.16 µM, first compound 0.01 µM) 99.6% | viability, T/C [17] 81.2% | viability, T/C [18] 78.8% | viability, T/C [19] 51.1% | viability, T/C [20] 36.9% | viability, T/C (second compound 10 µM, first compound 0.00316 µM) 79.5% | viability, T/C (second compound 10 µM, first compound 0.01 µM) 78.9% | viability, T/C [21] 72.8% | viability, T/C [22] 76.2% | viability, T/C [23] 46.5% | viability, T/C [24] 37.7%
374 nM: IC50 (second compound 3.16 µM)
321 nM: IC50 (second compound 0.316 µM)

O=C(Nc1ccc(O)c(NS(=O)(=O)c2ccc(F)cc2)c1)c1ccc(-c2ccccc2)cc1 + COC1C(OC(N)=O)C(O)C(Oc2ccc3c(O)c(NC(=O)c4ccc(O)c(CC=C(C)C)c4)c(=O)oc3c2C)OC1(C)C
inactive: viability, T/C [1] 89.2% | viability, T/C [2] 87.5% | viability, T/C [3] 109% | viability, T/C [4] 99.4% | viability, T/C [25] 103% | viability, T/C [26] 69.1% | viability, T/C [5] 91% | viability, T/C [6] 96.8% | viability, T/C [7] 98.6% | viability, T/C [8] 101% | viability, T/C [27] 94.8% | viability, T/C [28] 87.3% | viability, T/C [9] 108% | viability, T/C [10] 101% | viability, T/C [11] 82.2% | viability, T/C [12] 101% | viability, T/C [29] 94.8% | viability, T/C [30] 66% | viability, T/C [13] 90.6% | viability, T/C [14] 88.4% | viability, T/C [15] 89.6% | viability, T/C [16] 98.3% | viability, T/C [31] 99.9% | viability, T/C [32] 80.9% | viability, T/C [17] 108% | viability, T/C [18] 88.3% | viability, T/C [19] 94.5% | viability, T/C [20] 118% | viability, T/C [33] 94.6% | viability, T/C [34] 85.7% | viability, T/C [21] 97.7% | viability, T/C [22] 103% | viability, T/C [23] 93.8% | viability, T/C [24] 94.7% | viability, T/C [35] 104% | viability, T/C [36] 69.4%
> 10000 nM: IC50 (second compound 0.0316 µM) | IC50 (second compound 0.1 µM) | IC50 (second compound 0.316 µM) | IC50 (second compound 1 µM) | IC50 (second compound 3.16 µM) | IC50 (second compound 10 µM)

CC1COCCN1c1cc(-c2ccnn2C)c2ccnc(-c3ccn[nH]3)c2n1 (stereo unspecified) + Cc1cccc(N(C)C(=O)C2C(O)CCN2c2nc(C)cc(C(F)(F)F)c2C#N)c1
active: viability, T/C [26] 8.02% | viability, T/C [28] 7.36% | viability, T/C [30] 10.2% | viability, T/C [34] 6.72% | viability, T/C [36] 7.42%
414 nM: IC50 (second compound 1 µM)
340 nM: IC50 (second compound 0.1 µM)
inactive: viability, T/C [1] 94.8% | viability, T/C [2] 75.6% | viability, T/C [3] 58% | viability, T/C [4] 27.5% | viability, T/C [25] 12.6% | viability, T/C [5] 106% | viability, T/C [6] 81.6% | viability, T/C [7] 51.1% | viability, T/C [8] 28% | viability, T/C [27] 12.6% | viability, T/C [9] 106% | viability, T/C [10] 76.7% | viability, T/C [11] 52.3% | viability, T/C [12] 23.1% | viability, T/C [29] 12.2% | viability, T/C [13] 83.7% | viability, T/C [14] 99.3% | viability, T/C [15] 56.1% | viability, T/C [16] 24.1% | viability, T/C [31] 12.2% | viability, T/C [32] 8.86% | viability, T/C [17] 73.2% | viability, T/C [18] 77.7% | viability, T/C [19] 53.8% | viability, T/C [20] 32.8% | viability, T/C [33] 10.1% | viability, T/C [21] 90.7% | viability, T/C [22] 76.5% | viability, T/C [23] 50.2% | viability, T/C [24] 23.3% | viability, T/C [35] 10.8%
433 nM: IC50 (second compound 3.16 µM)
298 nM: IC50 (second compound 0.316 µM)
313 nM: IC50 (second compound 10 µM)
388 nM: IC50 (second compound 0.0316 µM)
